Test results reported in patent US20250197343A1, “CATIONIC LIPID” (TAKEDA PHARMACEUTICAL COMPANY LIMITED, priority 2021, published 2025).

Legend:
[1] = Particle size of Luc DNA-encapsulated lipid nanoparticles; type: physicochemical; conditions: cationic lipid:DPPC:cholesterol:GM-020=60:10.6:28:1.4 molar ratio
Text: The particle size of the lipid particle (in the composition) can be measured by a known approach. For example, the particle size can be calculated as a Z-average particle size by the cumulant analysis of an autocorrelation function using a particle size measurement apparatus Zetasizer Nano ZS (Malvern Instruments) based on a dynamic light scattering measurement technique. The particle size (average particle size) of the lipid particle (in the composition) is, for example, 10 to 200 nm, preferably 60 to 170 nm.
(§1) A lipid mixture containing a cationic lipid of the Examples shown in Table 2 (cationic lipid:DPPC:cholesterol:GM-020=60:10.6:28:1.4, molar ratio) was dissolved in 90% of EtOH and 10% of water to obtain a 15.0 mg/ml lipid solution. Luciferase (luc) DNA (manufactured by Nature Technology Corp.) was dissolved in a 10 mM MES buffer solution (pH 5.5) to obtain a 0.3 mg/ml nucleic acid solution. The obtained lipid solution and nucleic acid solution were mixed at a flow rate ratio of 3 ml/min:6 ml/min at room temperature using NanoAssemblr (manufactured by Precision NanoSystems Inc.) to obtain a dispersion containing Luc DNA-encapsulated lipid nanoparticles. The obtained dispersion was dialyzed against water at room temperature for 1 hour and against PBS at 4° C. for 23 hours using Slyde-A-Lyzer (molecular weight cutoff: 20 K, Thermo Fischer Scientific Inc.). Subsequently, the dialysate was filtered through a 0.2 µm syringe filter (Iwaki). A 60% solution of sucrose in PBS was added thereto, and the mixture was preserved as a 20% solution of sucrose in PBS at −80° C. Analysis results of particle size and rate of encapsulation of the Luc DNA-encapsulated lipid nanoparticles are also shown in Table 2.

[2] = Rate of encapsulation of Luc DNA in lipid nanoparticles; type: physicochemical; parameters: unit: %; conditions: Luc DNA-encapsulated lipid nanoparticles; cationic lipid:DPPC:cholesterol:GM-020=60:10.6:28:1.4 molar ratio
Text: The concentration and rate of encapsulation of the nucleic acid (e.g., siRNA or mRNA) in the composition of the present invention can be measured by a known approach. For example, the nucleic acid is fluorescently labeled using Quant-iT™ RiboGreen® (Invitrogen Corp.), and the fluorescence intensity can be measured to determine the concentration and the rate of encapsulation. The concentration of the nucleic acid in the composition can be calculated using a calibration curve prepared from aqueous nucleic acid solutions having known concentrations. The rate of encapsulation can be calculated on the basis of the difference in fluorescence intensity between the presence and absence of addition of Triton-X 100 (surfactant for disrupting the lipid particle). The concentration of the nucleic acid in the composition refers to the total concentration of a nucleic acid encapsulated in the lipid particle and an unencapsulated nucleic acid. The rate of encapsulation refers to the ratio of the nucleic acid encapsulated in the lipid particle to all nucleic acids in the composition.
as §1

ICrl:CD1 (ICR) mice = test: Mouse bioluminescence imaging evaluation (Test Example 1); type: in vivo; conditions: Luc DNA-encapsulated lipid nanoparticles 10 mL/kg i.v. to ICR mice; IVIS total flux 15 minutes after luciferin i.p.
Experimental: The Luc DNA-encapsulated lipid nanopatricles obtained in the aforesaid Production Example were intravenously administered to the tails of ICrl:CD1 (ICR) mice (10 mL/kg i.v.). After administration of the lipid particles, luciferin (15 mg/mL) was administered to the mice (10 mL/kg i.p.), which were loaded in an IVIS (in vivo imaging system) apparatus (manufactured by PerkinElmer, Inc.) under isoflurane inhalation anesthesia. Luminescence images of the mice were taken ventrally (in a supine position) 15 minutes after luciferin administration. The luminescence was digitized with the software of IVIS, followed by evaluation using the value of total flux. Higher luminescence means strong expression of the protein encoded by the DNA encapsulate in the lipid particle. In Table 2, higher luminescence is indicated on a scale of A, B and C in order. A represents luminescence of 3.0E+07 or more, B represents luminescence of 1.0E+0.7 or more and less than 3.0E+07, and C represents luminescence of less than 1.0E+07.

SMILES	Particle size (nm) [1]	Rate of encapsulation [2]	Luminescence (ICrl:CD1 (ICR) mice)
CCCCCCCOC(=O)CCCCC(=O)OCC(COC(=O)CCCCC(=O)OCCCCCCC)(COC(=O)CCCN(C(C)C)C(C)C)COC(=O)CC(CCCCC)CCCCC [Example 92, 1,1′-(2-[({4-[di(Propan-2-yl)amino]butanoyl}oxy)methyl]-2-{[(3-pentyloctanoyl)oxy]methyl}propane-1,3-diyl] 6,6′-diheptyl dihexanedioate]	125.7 nm	94.1	B (B represents luminescence of 1.0E+0.7 or more and less than 3.0E+07)
CCCCCCCCCOC(=O)CCC(=O)OCC(COC(=O)CCCN(CC)C(C)C)(COC(=O)CCC(=O)OCCCCCCCCC)COC(=O)CC(CCCCC)CCCCC [Example 100]	141.8 nm	94.9	B (B represents luminescence of 1.0E+0.7 or more and less than 3.0E+07)
CCCCCCCCCOC(=O)CCC(=O)OCC(COC(=O)CCCN(C)C)(COC(=O)CCC(=O)OCCCCCCCCC)COC(=O)CC(CCCCC)CCCCC [Example 97, 1,1′-[2-({[4-(Dimethylamino)butanoyl]oxy}methyl)-2-{[(3-pentyloctanoyl)oxy]methyl}propane-1,3-diyl] 4,4′-dinonyl dibutanedioate]	118.7 nm	97.8	A (A represents luminescence of 3.0E+07 or more)
CCCCCCCCCOC(=O)CCCCC(=O)OCC(COC(=O)CCCN(C)C)(COC(=O)CC(CCCCC)CCCCC)COC(=O)CC(CCCCC)CCCCC [Example 50, 2-({[4-(Dimethylamino)butanoyl]oxy}methyl)-3-[(3-pentyloctanoyl)oxy]-2-{[(3-pentyloctanoyl)oxy]methyl}propyl nonyl hexanedioate]	86.5 nm	98.2	B (B represents luminescence of 1.0E+0.7 or more and less than 3.0E+07)
CCCCCCCCOC(=O)CCCC(=O)OCC(COC(=O)CCCC(=O)OCCCCCCCC)(COC(=O)CCCN(CC)C(C)C)COC(=O)CC(CCCCC)CCCCC [Example 101, 1,1′-(2-[({4-[Ethyl(propan-2-yl)amino]butanoyl}oxy)methyl]-2-{[(3-pentyloctanoyl)oxy]methyl}propane-1,3-diyl) 5,5′-dioctyl dipentanedioate]	137.2 nm	93.2	A (A represents luminescence of 3.0E+07 or more)
CCCCCOC(=O)CCCCCCCC(=O)OCC(COC(=O)CCCCCCCC(=O)OCCCCC)(COC(=O)CCCCCCCC(=O)OCCCCC)COC(=O)CCCN(C)C [Example 55, 1,1′-[2-({[4-(Dimethylamino)butanoyl]oxy}methyl)-2-({[9-oxo-9-(pentyloxy)nonanoyl]oxy}methyl)propane-1,3-diyl] 9,9′-dipentyl dinonanedioate]	186.2 nm	79.7	C (C represents luminescence of less than 1.0E+07)
CCCCCCCCCOC(=O)CCCCC(=O)OCC(COC(=O)CCCCC(=O)OCCCCCCCCC)(COC(=O)CCCN(C)C)COC(=O)CC(CCCCC)CCCCC [Example 44, 1,1′-[2-({[4-(Dimethylamino)butanoyl]oxy}methyl)-2-{[(3-pentyloctanoyl)oxy]methyl}propane-1,3-diyl] 6,6′-dinonyl dihexanedioate]	132.3 nm	96.3	A (A represents luminescence of 3.0E+07 or more)
CCCCCCCCCCOC(=O)CCCCC(=O)OCC(COC(=O)CCCCC(=O)OCCCCCCCCCC)(COC(=O)CCCCC(=O)OCCCCCCCCCC)COC(=O)CCCN(C)C [Example 42, 1,1′-Didecyl 6,6′-[2-({[6-(dexyloxy)-6-oxohexanoyl]oxy}methyl)-2-({[4-(dimethylamino)butanoyl]oxy}methyl)propane-1,3-diyl] dihexanedioate]	114.5 nm	86.2	C (C represents luminescence of less than 1.0E+07)
CCCCCC(CCCCC)COC(=O)CCC(=O)OCC(COC(=O)CCCN(C)C)(COC(=O)CCC(=O)OCC(CCCCC)CCCCC)COC(=O)CC(CCCCC)CCCCC [Example 95, 1,1′-[2-({[4-(Dimethylamino)butanoyl]oxy}methyl)-2-{[(3-pentyloctanoyl)oxy]methyl}propane-1,3-diyl] 4,4′-bis(2-pentylheptyl) dibutanedioate]	82.6 nm	99.1	B (B represents luminescence of 1.0E+0.7 or more and less than 3.0E+07)
CCCCCC(CCCCC)COC(=O)CCC(=O)OCC(COC(=O)CCCN(C)C)(COC(=O)CC(CCCCC)CCCCC)COC(=O)CC(CCCCC)CCCCC [Example 96, 2-({[4-(Dimethylamino)butanoyl]oxy}methyl)-3-[(3-pentyloctanoyl)oxy]-2-{[(3-pentyloctanoyl)oxy]methyl}propyl 2-pentylheptyl butanedioate]	74.2 nm	98.8	B (B represents luminescence of 1.0E+0.7 or more and less than 3.0E+07)
CCCCCC(CCCCC)CC(=O)OCC(COC(=O)CCCCC(=O)OCCCC)(COC(=O)CCCN(CC)CC)COC(=O)CC(CCCCC)CCCCC [Example 21, Butyl 2-({[4-(diethylamino)butanoyl]oxy}methyl)-3-[(3-pentyloctanoyl)oxy]-2-{[(3-pentyloctanoyl)oxy]methyl}propyl hexanedioate]	131.4 nm	96.2	B (B represents luminescence of 1.0E+0.7 or more and less than 3.0E+07)
CCCCCCOC(=O)CCCCCC(=O)OCC(COC(=O)CCCCCC(=O)OCCCCCC)(COC(=O)CCCN(C)C)COC(=O)CC(CCCCC)CCCCC [Example 99, 1,1′-[2-({[4-(Dimethylamino)butanoyl]oxy}methyl)-2-{[(3-pentyloctanoyl)oxy]methyl}propane-1,3-diyl] 7,7′-dihexyl diheptanedioate]	153.8 nm	92.4	A (A represents luminescence of 3.0E+07 or more)
CCCCCC(CCCCC)CC(=O)OCC(COC(=O)CCCCC(=O)OCC(CCCC)CCCC)(COC(=O)CCCCC(=O)OCC(CCCC)CCCC)COC(=O)CCCN(C)C [Example 117, 1,1′-Bis(2-butylhexyl) 6,6′-[2-({[4-(dimethylamino)butanoyl]oxy}methyl)-2-{[(3-pentyloctanoyl)oxy]methyl}propane-1,3-diyl] dihexanedioate]	161.0 nm	82.0	B (B represents luminescence of 1.0E+0.7 or more and less than 3.0E+07)
CCCCCCCOC(=O)CCCCC(=O)OCC(COC(=O)CCCCC(=O)OCCCCCCC)(COC(=O)CCN(C)C)COC(=O)CC(CCCCC)CCCCC [Example 12, 1,1′-(2-{[(N,N-Dimethyl-beta-alanyl)oxy]methyl}-2-{[(3-pentyloctanoyl)oxy]methyl}propane-1,3-diyl) 6,6′-diheptyl dihexanedioate]	89.5 nm	95.7	C (C represents luminescence of less than 1.0E+07)
CCCCCCCOC(=O)CCCCC(=O)OCC(COC(=O)CCN(C)C)(COC(=O)CC(CCCCC)CCCCC)COC(=O)CC(CCCCC)CCCCC [Example 15, 2-{[(N,N-Dimethyl-beta-alanyl)oxy]methyl}-3-[(3-pentyloctanoyl)oxy]-2-{[(3-pentyloctanoyl)oxy]methyl}propyl heptyl hexanedioate]	89.5 nm	95.9	C (C represents luminescence of less than 1.0E+07)
